Reference: ChEMBL document CHEMBL3045752, “Sideroxylin and 8-demethylsideroxylin from Eucalyptus saligna (Myrtaceae)” (2001)

How the values were obtained:
Type in all cases: functional
Heliothis virescens = assay: Antifeedant activity against Heliothis virescens (tobacco budworm) final stadium […] at 100 ppm by glass-fiber choice assay
Locusta migratoria = assay: Antifeedant activity against Locusta migratoria final stadium nymphs at 100 ppm by glass-fiber choice assay
Spodoptera exigua = assay: Antifeedant activity against Spodoptera exigua final stadium […] at 100 ppm by glass-fiber choice assay

**Q.** Which AFI (Heliothis virescens) does the source give for COc1cc2oc(-c3ccc(O)cc3)cc(=O)c2c(O)c1C [8-DEMETHYLSIDEROXYLIN] here?
**A.** The AFI was 7.3%.

**Q.** And the AFI (Locusta migratoria)?
**A.** The AFI was 1.9%.

**Q.** What about the AFI (Spodoptera exigua) of the same compound?
**A.** Its AFI is 8.9%.

**Q.** What does the source list for COc1cc(/C=C/C=O)ccc1O [CONIFERYL ALDEHYDE]?
**A.** AFI (Heliothis virescens): 2.2%; AFI (Locusta migratoria): 4.5%; AFI (Spodoptera exigua): 4%

**Q.** What does the source list for COc1c(C)c(O)c2c(=O)cc(-c3ccc(O)cc3)oc2c1C [SIDEROXYLIN]?
**A.** AFI (Heliothis virescens): 19.6%; AFI (Locusta migratoria): 24.2%; AFI (Spodoptera exigua): 21.2%
